Where two headings read alike, the source gives them in different places.
Assays:
Human KARS = target: T1, Human KARS (Homo sapiens, UniProt Q15046); test: KARS AMP Transcreener FP assay; assay type: biochemical; details: 50 nM human KARS, 20 μM ATP, 50 μM L-Lysine, 1 μM tRNA, 2 h at RT; read-out: Human KARS Transcreener AMP assay Qualified absolute AC50
T1 construct: Human KARS protein (residues 70-584) was expressed and purified; made in house
Text: KARS AMP Transcreener FP Assay to Measure Inhibition of KARS Enzymatic Activity
Lysine-tRNA synthetase (KARS) is an enzyme that catalyzes the reaction of ATP, L-lysine, and tRNA(Lys) to form AMP, diphosphate, and L-lysyl-tRNA(Lys).
The Transceener® AMP/GMP (BellBrook Labs, Madison, WI, USA) is a far red, competitive fluorescence polarization (FP) immunoassay based on the detection of AMP, which is one of the products of aminoacylation of tRNA. In this assay, a fluorescently labeled AMP (AMP Alexa Fluor 633) is used as the tracer that can be recognized by a specific antibody. In the absence of AMP, all the tracer molecules are bound to the antibodies leading to large polarization. The AMP product generated by the enzyme reaction will compete with the tracer for binding to the antibody which leads to a decrease in the polarization. As such, the enzyme activity is inversely proportional to FP values.
Human KARS protein (residues 70-584) was expressed and purified using a similar protocol to what is described in literature (Crystal structure of tetrameric form of human lysyl-tRNA synthetase: Implications for multisynthetase complex formation Guo, M., Ignatov, M., Musier-Forsyth, K., Schimmel, P., Yang, X. L. (2008) Proc. Natl. Acad. Sci. Usa 105: 2331-2336).
The KARS enzyme assay was performed in a final volume of 10 μL per well of Corning Costar 384 well plate, flat bottom, black non-treated plate. The final assay concentration was 20 mM HEPES pH 7.5, 1 mM DTT, 50 nM human KARS, 20 μM ATP, 50 μM L-Lysine, 1 μM tRNA and 8 mM MgCl2. Compounds were serial diluted 1:3 in DMSO in a master plate to generate a 10 concentration points dose response with maximum concentration of 10 mM. 50 nL from compound master plate were spotted in each well of a 384 black plate (Corning 3573), and 5 μL of enzyme mixture containing 100 nM KARS diluted in assay buffer (20 mM HEPES pH 7.5 and 1 mM OTT) were added. The reaction was started by adding 5 μL of the substrate mixture containing 40 μM ATP (final 20 μM ATP), 100 μM L-Lysine (final 50 μM), 2 μM tRNA (final 1 μM), 16 mM MgCl2 (final 8 mM MgCl2) diluted in assay buffer (20 mM HEPES pH 7.5 and 1 mM OTT). The mixtures were mixed and incubated for 2 h at RT before the termination of the reaction.
Transcreener® stop and detection buffers were prepared (1× stop buffer [final: 0.5×], 2 nM Tracer [final: 1 nM] and 5 μg/ml anti-AMP antibody [final: 2.5 μg/ml] in deionized water) and 10 μL of the stop and detection mix were added to the reaction wells, mixed for a minute and centrifuged at 1000 rpm for 10 seconds. The plates were read after incubating at RT for 30-60 min using Infinite® M1000 with the following settings: Excitation wavelength: 635 nm; Emission wavelength: 680 nm. FP values of DMSO controls were used to normalize the data and calculate IC50s of compounds using the Helios Software suite.

[1] = test system: H460 (NRF2 pathway mutant cell line with high AKR1C3 expression); test: In vitro cell proliferation assay (CellTiter-Glo), H460; assay type: cell-based; details: Homo sapiens, NCI-H460, 72 h, read-out: H460 Qualified absolute AC50
In short: (§1)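 Luminescent CellTiter-Glo readout after 3-day compound exposure at 37 °C; 8-point 1:5 series, top 10 μM final. Seeding: 800 cells/well for H460, 2000 cells/well for Hara, RPMI-1640 plus 10% FBS. AC50 and percentage activity derived after normalizing to DMSO (1%) and MG132 (30 μM) controls.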

[2] = test system: Hara (NRF2 pathway wild type cell line with low AKR1C3 expression); test: In vitro cell proliferation assay (CellTiter-Glo), Hara; assay type: cell-based; details: 72 h, read-out: HARA Qualified absolute AC50
In short: as §1

[3] = H460 cells, 3 days, CellTiter-Glo, top concentration 10 μM
[4] = Hara cells, 3 days, CellTiter-Glo, top concentration 10 μM

T1 sequence (Q15046 70-584): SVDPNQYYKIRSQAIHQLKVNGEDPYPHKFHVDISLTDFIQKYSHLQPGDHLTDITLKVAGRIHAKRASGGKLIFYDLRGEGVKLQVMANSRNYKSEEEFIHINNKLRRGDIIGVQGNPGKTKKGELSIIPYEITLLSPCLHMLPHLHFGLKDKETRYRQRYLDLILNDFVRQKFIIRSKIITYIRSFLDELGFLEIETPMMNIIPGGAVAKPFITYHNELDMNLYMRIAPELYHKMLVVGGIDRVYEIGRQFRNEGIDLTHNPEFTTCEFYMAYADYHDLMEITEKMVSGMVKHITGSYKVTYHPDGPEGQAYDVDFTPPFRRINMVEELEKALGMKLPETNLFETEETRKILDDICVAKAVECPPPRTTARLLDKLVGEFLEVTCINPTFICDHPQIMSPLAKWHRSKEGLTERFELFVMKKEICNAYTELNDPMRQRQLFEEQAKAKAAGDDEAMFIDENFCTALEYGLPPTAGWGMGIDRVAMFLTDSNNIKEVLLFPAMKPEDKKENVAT

| Structure (SMILES) | AC50 (Human KARS) | AC50 [1, 3] | AC50 [2, 4] | AC50 [1] | AC50 [2] |
| --- | --- | --- | --- | --- | --- |
| CN1c2ccc(F)cc2C(O)CC12CCN(C(=O)NCc1cc(NCCO)c(F)cc1F)CC2 (racemic) [Example 156, N-(2,4-difluoro-5-((2-hydroxyethyl)amino)benzyl)-6′-fluoro-4′-hydroxy-1′-methyl-3′,4′-dihydro-1′H-spiro[piperidine-4,2′-quinoline]-1-carboxamide] | 23.5 nM | 49 nM | 80 nM | – | – |
| NC(=O)c1cc(CNC(=O)N2CCC3(CC2)CC(O)c2cc(F)cc(F)c2N3)ccc1F (racemic) [Example 157, N-(3-carbamoyl-4-fluorobenzyl)-6′,8′-difluoro-4′-hydroxy-3′,4′-dihydro-1′H-spiro[piperidine-4,2′-quinoline]-1-carboxamide] | 34.1 nM | 0.1 nM | 2 nM | – | – |
| Nc1cc(CNC(=O)N2CCC3(CC2)CC(O)c2cc(F)ccc2N3)ccc1F (racemic) [Example 158, N-(3-amino-4-fluorobenzyl)-6′-fluoro-4′-hydroxy-3′,4′-dihydro-1′H-spiro[piperidine-4,2′-quinoline]-1-carboxamide] | 42.1 nM | 33 nM | 6 nM | – | – |
| O=C(NC1CC(O)C1)c1cc(CNC(=O)N2CCC3(CC2)CC(O)c2cc(F)ccc2N3)ccc1F (racemic) [Example 162, 6′-fluoro-N-(4-fluoro-3-((3-hydroxycyclobutyl)carbamoyl)benzyl)-4′-hydroxy-3′,4′-dihydro-1′H-spiro[piperidine-4,2′-quinoline]-1-carboxamide] | 73.7 nM | 47 nM | – | – | – |
| Cc1noc(CNC(=O)N2CCC3(CC2)CC(=O)c2cc(F)ccc2N3)n1 [Example 134, 6′-fluoro-N-((3-methyl-1,2,4-oxadiazol-5-yl)methyl)-4′-oxo-3′,4′-dihydro-1′H-spiro[piperidine-4,2′-quinoline]-1-carboxamide] | – | 1780 nM | 94 nM | – | – |
| CC(O)c1cc(CNC(=O)N2CCC3(CC2)CC(=O)c2cc(F)ccc2N3)ccc1F (stereo not shown) [Example 135, 6′-fluoro-N-(4-fluoro-3-(1-hydroxyethyl)benzyl)-4′-oxo-3′,4′-dihydro-1′H-spiro[piperidine-4,2′-quinoline]-1-carboxamide] | – | 1860 nM | > 10000 nM | – | – |
| Nc1ccc(CNC(=O)N2CCC3(CC2)CC(=O)c2cc(F)ccc2N3)cn1 [Example 136, N-((6-aminopyridin-3-yl)methyl)-6′-fluoro-4′-oxo-3′,4′-dihydro-1′H-spiro[piperidine-4,2′-quinoline]-1-carboxamide] | – | 1990 nM | > 10000 nM | – | – |
| Nc1cc(F)ccc1CNC(=O)N1CCC2(CC1)CC(=O)c1cc(F)ccc1N2 [Example 137, N-(2-amino-4-fluorobenzyl)-6′-fluoro-4′-oxo-3′,4′-dihydro-1′H-spiro[piperidine-4,2′-quinoline]-1-carboxamide] | – | 2030 nM | > 10000 nM | – | – |
| O=C1CC2(CCN(C(=O)NCc3cocn3)CC2)Nc2ccc(F)cc21 [Example 138, 6′-fluoro-N-(oxazol-4-ylmethyl)-4′-oxo-3′,4′-dihydro-1′H-spiro[piperidine4,2′-quinoline]-1-carboxamide] | – | 2110 nM | > 10000 nM | – | – |
| CN1c2ccc(F)cc2C(=O)CC12CCN(C(=O)NCc1ccc(F)c(C(C)(C)O)c1)CC2 [Example 139, 6′-fluoro-N-(4-fluoro-3-(2-hydroxypropan-2-yl)benzyl)-1′-methyl-4′-oxo-3′,4′-dihydro-1′H-spiro[piperidine-4,2′-quinoline]-1-carboxamide] | – | 2300 nM | 8830 nM | – | – |
| CN1c2ccc(F)cc2C(=O)CC12CCN(C(=O)NCc1ccc(F)c(NCC(C)(C)C(=O)O)c1)CC2 [Example 140, 3-((2-fluoro-5-((6′-fluoro-1′-methyl-4′-oxo-3′,4′-dihydro-1′H-spiro[piperidine-4,2′-quinoline]-1-carboxamido)methyl)phenyl)amino)-2,2-dimethylpropanoic acid] | – | – | – | 2340 nM | > 10000 nM |
| O=C1CC2(CCN(C(=O)NCc3cccc4nonc34)CC2)Nc2ccc(F)cc21 [Example 141, N-(benzo[c][1,2,5]oxadiazol-4-ylmethyl)-6′-fluoro-4′-oxo-3′,4′-dihydro-1′H-spiro[piperidine-4,2′-quinoline]-1-carboxamide] | – | 2450 nM | > 10000 nM | – | – |
| Cc1cc(F)cc2c1NC1(CCN(C(=O)NCc3ccc(F)c(C(N)=O)c3)CC1)CC2=O [Example 142, N-(3-carbamoyl-4-fluorobenzyl)-6′-fluoro-8′-methyl-4′-oxo-3′,4′-dihydro-1′H-spiro[piperidine4,2′-quinoline]-1-carboxamide] | – | 2450 nM | > 10000 nM | – | – |
| CCCNC(=O)c1cc(CNC(=O)N2CCC3(CC2)CC(=O)c2cc(F)ccc2N3)ccc1F [Example 143, 6′-fluoro-N-(4-fluoro-3-(propylcarbamoyl)benzyl)-4′-oxo-3′,4′-dihydro-1′H-spiro[piperidine-4,2′-quinoline]-1-carboxamide] | – | 2620 nM | > 10000 nM | – | – |
| O=C1CC2(CCN(C(=O)NCc3cccc(-n4cncn4)c3)CC2)Nc2c(F)cc(F)cc21 [Example 144, N-(3-(1H-1,2,4-triazol-1-yl)benzyl)-6′,8′-difluoro-4′-oxo-3′,4′-dihydro-1′H-spiro[piperidine-4,2′-quinoline]-1-carboxamide] | – | 3050 nM | > 10000 nM | – | – |
| Cn1cc(CNC(=O)N2CCC3(CC2)CC(=O)c2cc(F)ccc2N3)cn1 [Example 145, 6′-fluoro-N-((1-methyl-1H-pyrazol-4-yl)methyl)-4′-oxo-3′,4′-dihydro-1′H-spiro[piperidine-4,2′-quinoline]-1-carboxamide] | – | 3500 nM | 6060 nM | – | – |
| O=C1CC2(CCN(C(=O)NCc3ccc(F)c(CNCCO)c3)CC2)Nc2ccc(F)cc21 [Example 146, 6′-fluoro-N-(4-fluoro-3-(((2-hydroxyethyl)amino)methyl)benzyl)-4′-oxo-3′,4′-dihydro-1′H-spiro[piperidine-4,2′-quinoline]-1-carboxamide] | – | 3650 nM | 2790 nM | – | – |
| NS(=O)(=O)Cc1cc(CNC(=O)N2CCC3(CC2)CC(=O)c2cc(F)ccc2N3)ccc1F [Example 147, 6′-fluoro-N-(4-fluoro-3-(sulfamoylmethyl)benzyl)-4′-oxo-3′,4′-dihydro-1′H-spiro[piperidine-4,2′-quinoline]-1-carboxamide] | – | 3960 nM | > 10000 nM | – | – |
| CN1c2ccc(F)cc2C(=O)CC12CCN(C(=O)NCc1ccc(F)c([C@@H](N)C(F)(F)F)c1)CC2 [Example 149, (R)—N-(3-(1-amino-2,2,2-trifluoroethyl)-4-fluorobenzyl)-6′-fluoro-1′-methyl-4′-oxo-3′,4′-dihydro-1′H-spiro[piperidine-4,2′-quinoline]-1-carboxamide] | – | 5430 nM | > 10000 nM | – | – |
| O=C1CC2(CCN(C(=O)NCc3ccc(OC(F)F)cc3)CC2)Nc2c(F)cc(F)cc21 [Example 150, N-(4-(difluoromethoxy)benzyl)-6′,8′-difluoro-4′-oxo-3′,4′-dihydro-1′H-spiro[piperidine-4,2′-quinoline]-1-carboxamide] | – | 6270 nM | 2620 nM | – | – |

— patent US11970497B2, “Tricyclic AKR1C3 dependent KARS inhibitors” (Novartis AG, priority 2019, dated 2024)
